# Laboratory results: patent US12083202B2, “Lipophilic cosmetic compositions containing pelargonic acid esters” (Novamont S.p.A., priority 2015, dated 2024)
# Legend:
# [1] = Pigment dispersion: wet point and flow point; assay type: physicochemical; settings: for Fp (flow point), amount of ester oil needed / Wp (wet point), amount of ester oil needed: grams per 100 g of pigment, Black Iron Oxide CI77499
# Description: Black Iron Oxide particles (CI77499, commercially available as YPC335200 from Yipin) were dispersed in each of the ester oils of the present invention and in ester oil commonly used as cosmetic ingredients. Each sample of powder particles was wetted by the dropwise addition of one ester oil and then vigorously blended using a spatula until the wet point and the flow point were reached.
# The wet point is defined as the minimum volume of dispersant solution to produce a soft coherent mass; the further minimum addition of dispersant solution to produce flow or falling off of the homogeneous mass from the vertical blade of a horizontally held spatula determines the flow point.
# The amounts of dispersant solution (i.e. ester oil) needed to reach the wet point (Wp) and the flow point (Fp) were recorded and reported in the table below, expressed in grams per 100 g of pigment.
# [2] = UV filters dispersion: dispersibility of a solid UV filter in ester oils; assay type: physicochemical; parameters: key to Filters dispersion t0 1% / Filters dispersion t0 10% / Filters dispersion t24 1% / Filters dispersion t24 10%: D=homogeneous dispersion; S=sediment deposit; settings: for Filters dispersion t0 1%: 1% TiO2, storage 0 hours at 25° C.; for Filters dispersion t24 1%: 1% TiO2, storage 24 hours at 25° C.; for Filters dispersion t0 10%: 10% TiO2, storage 0 hours at 25° C.; for Filters dispersion t24 10%: 10% TiO2, storage 24 hours at 25° C.; for dispersion of Titania: in words, compared with reference solvents
# Description: The dispersibility of a solid UV filter in different ester oils was tested using Titania (TiO2, commercially available as Titanio Biossido Anatasio from A.C.E.F.). Various ratios of filter/ester (1% and 10% TiO2) were prepared under stirring at 70° C. for 30 minutes. The dispersions were then observed after a storage period of 0 hours (t0) and 24 hours (t24) at ambient temperature (25° C.) to check for the formation of any sediment deposit. Results for each ester are shown in the table below (D=homogeneous dispersion; S=sediment deposit).
"Fp (flow point), amount of ester oil needed [1]","Wp (wet point), amount of ester oil needed [1]",Filters dispersion t0 1% [2],Filters dispersion t24 1% [2],Filters dispersion t0 10% [2],Filters dispersion t24 10% [2],dispersion of Titania [2],less solvent required in the final composition ([1]; from the minimum difference between Fp and Wp),SMILES,"dispersion properties ([1]; in words, compared with commonly used cosmetic ingredients)"
166.00 g,61.00 g,D,S/D,D,S/D,–,–,CCCCCCCCC(=O)OCC(C)(C)COC(=O)CCCCCCCC [Neopentyl glycol dipelargonate],–
145.00 g,50.00 g,D,S,D,S,–,–,"CC(C)CCCCCCOC(=O)CCCCCC(C)C [Isononyl Isononanoate, reference compound]",–
132.00 g,62.00 g,D,D,D,D,even better,–,CCCCCCCCC(=O)OCC(COC(=O)CCCCCCCC)(COC(=O)CCCCCCCC)COC(=O)CCCCCCCC [Pentaerythritol tetrapelargonate],–
100.00 g,60.00 g,D,D,D,S/D,even better,about 30%,CCCCCCCCC(=O)OCC(COC(=O)CCCCCCCC)OC(=O)CCCCCCCC [Glycerol tripelargonate],even better than those of Caprylic/Capric Triglyceride
